The conditions of the data set: mouse, in vivo.

Where a SMILES comes first, the peptide text is derived from it. [ ]: non-standard residue; d: D form. The star is where a group is joined. X1 = CC(=O)N[C@@H]1[C@@H](O[C@@H]2O[C@H](CO)[C@H](O)[C@H](O)[C@H]2O)[C@@H](O)[C@@H](CO[C@@H]2O[C@H](CO)[C@@H](O[C@@H]3O[C@H](CO)[C@H](O)[C@H](O[C@]4(C(=O)O)C[C@H](O)[C@@H](NC(C)=O)[C@H]([C@H](O)[C@H](O)CO)O4)[C@H]3O)[C@H](O[C@@H]3O[C@@H](C)[C@@H](O)[C@@H](O)[C@@H]3O)[C@H]2NC(C)=O)O[C@@H]1*; sY = N[C@@H](Cc1ccc(OS(=O)(=O)O)cc1)C(=O)O

Experimental: Microscopic observations were made using an upright microscope (NIKON ECLIPSE E600-FN, Nikon UK Ltd, UK) equipped with a water immersion objective (40×/0.80 W). Images were recorded using a CCD camera (DAGE MTI DC-330, DAGE MTI Inc, Michigan City, Ind.) onto sVHS video-cassettes. Venules (20-40 μM diameter) were selected and typically observed for the entire experimental period. Centre-line blood flow velocity (VCL) in was measured in vessels of interest using a commercially available velocimeter (CIRCUSOFT, Hockessin, Del.). Vessels with VCL between 1 and 5 mm/s were selected for these studies.
Control leukocyte rolling was recorded exactly 30 min after exposure of the cremaster muscle for intravital microscopy since leukocyte rolling at this time is almost exclusively P-selectin-dependent . GSPs were injected at 31 min and their effects monitored for 10 min. […] Blood flow velocities and circulating leukocyte concentrations were measured at key times (before and after treatments) during experiments.

Consider `CC(=O)N[C@H]1[C@H](OC[C@H]2O[C@H](O[C@H](C)[C@H](NC(=O)[C@H](CCC(=O)O)NC(=O)[C@@H]3CCCN3C(=O)[C@H](CC(C)C)NC(=O)[C@H](Cc3ccccc3)NC(=O)[C@H](CC(=O)O)NC(=O)[C@H](Cc3ccc(OS(=O)(=O)O)cc3)NC(=O)[C@H](CC(=O)O)NC(=O)[C@H](CC(C)C)NC(=O)[C@H](Cc3ccc(OS(=O)(=O)O)cc3)NC(=O)[C@H](CCC(=O)O)NC(=O)[C@H](Cc3ccc(OS(=O)(=O)O)cc3)NC(=O)[C@@H](N)CCC(=O)O)C(=O)N[C@@H](CCC(=O)O)C(=O)N3CCC[C@H]3C(=O)N3CCC[C@H]3C(=O)N[C@@H](CCC(=O)O)C(=O)N[C@@H](CS)C(=O)O)[C@H](NC(C)=O)[C@@H](O[C@@H]3O[C@H](CO)[C@H](O)[C@H](O)[C@H]3O)[C@H]2O)O[C@H](CO)[C@@H](O[C@@H]2O[C@H](CO)[C@H](O)[C@H](O[C@]3(C(=O)O)C[C@H](O)[C@@H](NC(C)=O)[C@H]([C@H](O)[C@H](O)CO)O3)[C@H]2O)[C@@H]1O[C@@H]1O[C@@H](C)[C@@H](O)[C@@H](O)[C@@H]1O` [2-GSP-6] (H-E[sY]E[sY]LD[sY]DFLPET(X1)EPPEC-OH), for which the “Systemic leukocyte counts following treatment” value is given as “increased slightly”.
